In patent US7880042B2, “Tetrahydronaphthalene derivatives, methods for the production thereof, and the use thereof as antiphlogistics” (Bayer Schering Pharma AG, priority 2006, dated 2011):
Where two headings read alike, the source gives them in different places.

How the values were obtained:
[1] = test system: tyrosine aminotransferase (TAT); test: TAT induction in vitro; format: cell-based; conditions: for Emax: read-out: TAT eff
[2] = test system: lipopolysaccharide (LPS)-initiated secretion of the cytokine IL-8 in the human THP-1 monocyte cell line; test: Inhibition of LPS-initiated IL-8 secretion in THP-1 cells; format: cell-based; conditions: for Emax / IC50: Homo sapiens; for Emax: read-out: IL8 eff; for IC50: read-out: IL8 IC50; for Diss. (TATEC50/IL8IC50): ratio TAT EC50 / IL8 IC50
[3] = inventive stereoisomers, efficacy of TAT induction
[4] = inventive stereoisomers, in vitro TAT induction
[5] = THP-1, inventive stereoisomers, efficacy of IL-8 inhibition
[6] = inventive stereoisomers, LPS-initiated IL-8 secretion, THP-1 cells
[7] = prior-art compounds (WO2005/034939)
[8] = THP-1, prior-art compounds (WO2005/034939)
[9] = inventive stereoisomers, in vitro TAT induction, cells printed in μM

Compound	EC50 [1, 4] [µM]	IC50 [2, 6] [nM]	EC50 [1, 7] [µM]	IC50 [2, 8] [nM]	EC50 [1, 9] [µM]	Emax [1, 3] [%]	Emax [2, 5] [%]	Diss. (TATEC50/IL8IC50) ([2]; inventive stereoisomers)	Emax [1, 7] [%]	Emax [2, 8] [%]	Diss. (TATEC50/IL8IC50) [2, 7]
CC[C@H]1C[C@](O)(C(F)(F)F)[C@@H](Nc2cc(F)cc3[nH]c(=O)ccc23)c2ccc(Cl)c(O)c21 (stereo in doubt) [Example 101, 5-{[(1α,2α,4α)-6-Chloro-2,5-Dihydroxy-4-ethyl-2-(trifluoromethyl)-1,2,3,4-tetrahydronaphthalen-1-yl]amino}-7-fluoro-1H-quinolin-2-one]	0.074	1.8				97	92	41			
CCC1CC(O)(C(F)(F)F)C(Nc2cccc3[nH]c(=O)ccc23)c2cc(F)cc(O)c21 (centres unmarked) [Example 75, 5-{[4-Ethyl-7-fluoro-2,5-dihydroxy-2-(trifluoromethyl)-1,2,3,4-tetrahydronaphthalen-1-yl]amino}quinolin-2(1H)-one]	0.12	7.1				89	68	16.9			
Cc1ncc2c(NC3c4cc(C)c(F)c(O)c4C(C)(C)CC3(O)C(F)(F)F)ccc(F)c2n1 (centres unmarked) [reference compound]			0.0065	40					100	79	0.16
CC[C@@H]1C[C@](O)(C(F)(F)F)[C@@H](Nc2cccc3[nH]c(=O)ccc23)c2cc(F)c(F)c(O)c21 [Example 54, 5-{[(1α,2α,4β)-4-ethyl-6,7-difluoro-2,5-dihydroxy-2-(trifluoromethyl)-1,2,3,4-tetrahydronaphthalen-1-yl]amino}quinolin-2(1H)-one]	0.49	5.7				76	78	86			
CC1(C)CC(O)(C(F)(F)F)C(Nc2cccc3[nH]c(=O)ccc23)c2ccc(F)c(O)c21 (centres unmarked) [reference compound]			0.0038	14					92	68	0.27
Cc1ccc2c(N[C@H]3c4ccc(F)c(O)c4[C@H](C)C[C@]3(O)C(F)(F)F)cccc2n1 [Example 1]		22			1	62	79	45.5			
Cc1ncc2c(NC3c4cc(Cl)c(F)c(O)c4C(C)(C)CC3(O)C(F)(F)F)cc(F)c(F)c2n1 (centres unmarked) [reference compound]			0.0042	31					100	96	0.14
Cc1ccc2c(NC3c4ccc(F)c(O)c4C(C(C)C)CC3(O)C(F)(F)F)cccc2n1 (centres unmarked) [Example 65, 2-Fluoro-5-[(2-methylquinolin-5-yl)amino]-8-(Prop-2-yl)-6-(trifluoromethyl)-5,6,7,8-tetrahydronaphthalene-1,6-diol]		38			1	73	58	26.3			
CCC1CC(O)(C(F)(F)F)C(Nc2cccc3nc(C)ccc23)c2ccc(F)c(O)c21 (centres unmarked) [reference compound]			0.14	220					88	69	0.64
Cc1ncc2c(NC3c4ccc(Cl)c(O)c4C(C)(C)CC3(O)C(F)(F)F)ccc(F)c2n1 (centres unmarked) [reference compound]			0.003	22					98	73	0.14
CC[C@H]1C[C@](O)(C(F)(F)F)[C@@H](Nc2cccc3[nH]c(=O)ccc23)c2ccc(F)c(O)c21 (stereo in doubt) [Example 43, 5-{[(1α,2α,4α)-4-Ethyl-6-fluoro-2,5-dihydroxy-2-(trifluoromethyl)-1,2,3,4-tetrahydronaphthalen-1-yl]amino}quinolin-2(1H)-one]	0.043	12				100	88	3.6			
CC1(C)CC(O)(C(F)(F)F)C(Nc2cc(F)cc3[nH]ncc23)c2ccc(F)c(O)c21 (centres unmarked) [reference compound]			0.0043	20					100	88	0.22

The next lines start with results.

EC50 [1, 4] [µM]	IC50 [2, 6] [nM]	EC50 [1, 7] [µM]	IC50 [2, 8] [nM]	EC50 [1, 9] [µM]	Compound	Emax [1, 3] [%]	Emax [2, 5] [%]	Diss. (TATEC50/IL8IC50) ([2]; inventive stereoisomers)	Emax [1, 7] [%]	Emax [2, 8] [%]	Diss. (TATEC50/IL8IC50) [2, 7]
0.017	6.6				CC[C@@H]1C[C@](O)(C(F)(F)F)[C@@H](Nc2cc(F)cc3nc(C)ncc23)c2ccc(F)c(O)c21 [Example 30A, (5S,6R,8R)-8-Ethyl-2-fluoro-5-[(7-fluoro-2-methylquinazolin-5-yl)amino]-6-(trifluoromethyl)-5,6,7,8-tetrahydronaphthalene-1,6-diol]	95	89	2.8			
0.15	13				CC[C@@H]1C[C@](O)(C(F)(F)F)[C@@H](Nc2cc(F)cc3nc(C)ncc23)c2cc(F)c(F)c(O)c21 [Example 51A, (5α,6α,8β)-8-Ethyl-2,3-difluoro-5-[(7-fluoro-2-methylquinazolin-5-yl)amino]-6-(trifluoromethyl)-5,6,7,8-tetrahydronaphthalene-1,6-diol]	81	72	11.5			
0.12	16				CC[C@@H]1C[C@](O)(C(F)(F)F)[C@@H](Nc2cccc3nc(C)ncc23)c2ccc(F)c(O)c21 [Example 29A, (5α,6α,8β)-8-Ethyl-2-fluoro-5-[(2-methylquinazolin-5-yl)amino]-6-(trifluoromethyl)-5,6,7,8-tetrahydronaphthalene-1,6-diol]	95	77	7.5			
0.3	3.7				CC[C@@H]1C[C@](O)(C(F)(F)F)[C@@H](Nc2cccc3c(=O)[nH]ccc23)c2cc(Cl)c(C)c(O)c21 [Example 121B, 5-{[(1S,2R,4R)-7-chloro-2,5-Dihydroxy-6-methyl-4-ethyl-2-(trifluoromethyl)-1,2,3,4-tetrahydronaphthalen-1-yl]amino}-2H-quinolin-1-one]	99	88	81			
